Patent US9804152B1, “Human ex vivo skin model and its use in methods of identifying modulators of skin inflammation” (The Procter & Gamble Company, priority 2012, dated 2017)

Assays:
Format in all cases: cell-based
[1] = system: endogenously inflamed ex vivo human skin sample; assay: Inhibitors of endogenous inflammation: IL-8/IL-6 secretion by ex vivo skin samples; settings: for IL-8 secretion: endogenously inflamed skin sample, without inhibitor about 2,600 pg/ml; for IL-8 secretion / IL-8 expression (secretion): day 3; for IL-8 expression: not induced, untreated 1045 pg/ml; for inhibition of endogenous inflammation, conclusion in words: IL-8 as marker; for fold-regulation in secretion (expression) of IL-6 / fold-regulation in secretion (expression) of IL-8: endogenously inflamed skin; for IL-8 expression (secretion): untreated (endogenous) skin sample
Source text: (§1) This Example describes the materials and methods used in preparing ex vivo skin samples for use according to the methods disclosed herein. Materials used in preparation of ex vivo skin samples for use in the disclosed screening methods included: Dulbecco's Modified Eagle Medium (DMEM) plus Glutamax, antibiotic and antimycotics, 1× phosphate-buffered saline (PBS), 150×15 mm sterile culture dishes, sterile gauze 4×4, disposable safety scalpels, 4 mm disposable biopsy punch, 6-well cell-culture inserts, disinfected tweezers, cotton-tipped applicators, 6-well culture plates, ruled, disinfected cutting mat (12×12), scraper handle, tissue freezing medium, biopsy cassettes, frozen-tissue freezing vessels, 10% formalin, shipping containers for fixed tissue, and biohazard/sharps containers. Media was prepared in advance of the arrival of ex vivo skin. The skin arrived with the dermis (fat) side down on sterile DMEM soaked gauze in a sterile culture dish. The culture dish was taped shut and in a biohazard zip-lock baggie on an ice pack in a secondary container.
(§2) On arrival, the skin was removed from the bag and soaked in 3×DMEM media (3× refers to concentration of antibiotic and antimycotics) and stored at 4° C. for 1 hour. After 1 hour, the skin was removed from the 3×DMEM and rinsed with sterile 1×PBS. The skin was placed in a clean culture dish containing gauze soaked with 1×DMEM. The sample was put in culture the same day as arrival. If necessary, however, the ex vivo skin samples can be stored at 4° C. overnight.
(§3) In preparation for culture, the following was performed: on a cutting mat, the skin was flipped over so that the epidermis was down and the subcutis (fat) was exposed. The fat was removed with a disposable scalpel by carefully grasping one corner of the skin with sterile serrated forceps and scraping the fat away with the blade held at a 45° angle to the skin. After the fat was removed, the surgical edges were cut off with a scalpel using a scraper as a straight edge guide and to hold the skin in place. Using the scraper as a guide, the skin was cut into 1.25 cm (2×2 squares on grid) wide strips using a ruler to measure the width. The strip was rinsed in a 100 mm culture dish containing 1×PBS. The strips were cut into 1.25 cm^2 squares and placed in a 100 mm culture dish on 1×DMEM-soaked gauze until they were put into culture 30 minutes later.
(§4) Culture plates were prepared that included 2.5 ml of media or media with treatment (e.g., a candidate modulator, an inflammation inducer, and/or an inhibitor of inflammation) in each well of a 6-well plate. One Millicell culture insert was added to each well and 100 μl of 1× DMEM was put in the center of each insert membrane. Squares of skin tissue were selected randomly and placed into each of the inserts (one piece of skin per insert), on top of the media on the membrane. The plates were stored at 33° C., with fresh media changes daily. As a control, baseline tissue measurements were collected from excess waste (cryogenics were used for snap-freezing). Baseline biopsy collection included two 4 mm punches for an MTT colorimetric assay (described below); one 4 mm punch was snap-frozen in OCT tissue compound for fresh histology; one 4 mm punch was fixed in 10% formalin and sent out for paraffin embedding. Expression measurements of inflammation marker genes were performed using PCR and primers appropriate to the known sequence of the gene(s) of interest.
(§5) Culturing and treatment of the ex vivo skin model comprised replicates of n=5. Before experimental treatment, compounds (e.g., a candidate modulator, an inflammation inducer, or a suppressor of inflammation) were solubilized in appropriate solvents (including PBS, media, alcohol, and DMSO). Appropriate dilutions were made for treatment and 15 ml of media was used per plate per day for treatment, with 2.5 ml of media per well under the cell culture insert. Media was pre-warmed and changed every day during the experiment.

[2] = system: induced inflamed ex vivo human skin sample (IL-17 + IL-22); assay: Inhibitors of IL-17/IL-22-induced inflammation: IL-8 secretion by ex vivo skin samples; settings: for IL-8 expression: induced by IL-17 (200 ng/ml)/IL-22 (20 ng/ml), day 4, induced alone 1798 pg/ml; for inhibition of IL-17/IL-22 induced inflammation, conclusion in words: IL-8 as marker; for IL-8 expression (secretion): IL-17/IL-22-induced inflammation, day 3, induced alone about 3,800 pg/ml
[3] = system: induced inflamed ex vivo human skin sample (IL-17 + IL-22); assay: Inhibitors of IL-17/IL-22-induced inflammation: inflammation marker gene expression in ex vivo skin samples
Source text: as §1, §2, §3, §4
(§6) Culturing and treatment of the ex vivo skin model comprised replicates of n=5. Before experimental treatment, compounds (e.g., a candidate modulator, an inflammation inducer, or a suppressor of inflammation) were solubilized in appropriate solvents (including PBS, media, alcohol, and DMSO). Appropriate dilutions were made for treatment and 15 ml of media was used per plate per day for treatment, with 2.5 ml of media per well under the cell culture insert. Media was pre-warmed and changed every day during the experiment. […]

[4] = system: endogenously inflamed ex vivo human skin sample; assay: Inhibitors of endogenous inflammation: inflammation marker gene expression in ex vivo skin samples; settings: 10 μM clobetasol
Source text: as §1, §2, §3, §4, §6

[5] = system: ex vivo human skin sample; assay: Inducers of inflammation: inflammation marker gene expression in ex vivo skin samples (PCR)
Source text: as §1, §2, §3, §4, §5

[6] = endogenously inflamed, 0.6 nM betamethasone, 0.08 μM hydrocortisone, 30 μM ketoprofen, 35 μM arlatone

Compound: c1cnc2c(c1)ccc1cccnc12 [1,10-phenanthroline]
- IL-8 secretion ([1]; topical 1.2 μg/ml 1,10-phenanthroline): about 900 pg/ml

Compound: O=c1cc(-c2ccc(O)cc2)oc2cc(O)cc(O)c12 [apigenin]
- IL-8 expression ([1]; 25 μM apigenin, day 4): 106 pg/mL
- inhibition of endogenous inflammation, conclusion in words [1]: functions effectively in inhibiting endogenous inflammation
- IL-8 expression ([2]; 25 μM apigenin): 1276 pg/mL
- inhibition of IL-17/IL-22 induced inflammation, conclusion in words [2]: does not appear to function effectively to inhibit induced inflammation

Compound: C[C@H]1C[C@H]2[C@@H]3CCC4=CC(=O)C=C[C@]4(C)[C@@]3(F)[C@@H](O)C[C@]2(C)[C@@]1(O)C(=O)CCl [clobetasol]
- IL-6 expression relative to control values ([3]; 10 μM clobetasol with IL-17 (200 ng/ml) and IL-22 (20 ng/ml), induced alone about 6-fold): about 0.3 fold
- IL-8 expression relative to the untreated control ([3]; 10 μM clobetasol with IL-17 (200 ng/ml) and IL-22 (20 ng/ml), induced alone about 16-fold): about 3 fold
- S100A7 expression relative to the untreated control ([3]; 10 μM clobetasol with IL-17 (200 ng/ml) and IL-22 (20 ng/ml), induced alone about 34-fold): about 26 fold
- DEFB4 expression relative to controls ([3]; 10 μM clobetasol with IL-17 (200 ng/ml) and IL-22 (20 ng/ml), induced alone about 800-fold): about 200 fold
- gene expression of key inflammatory markers (nine marker genes, FIG. 8), in words ([3]; 10 μM clobetasol, IL-17 (200 ng/ml) + IL-22 (20 ng/ml) driven inflammation): appropriately inhibits gene expression of key inflammatory markers
- IL-6 expression level in the presence of the inducers and clobetasol, in words ([3]; 10 μM clobetasol, IL-17 (200 ng/ml) and IL-22 (20 ng/ml)): lower than the IL-6 expression level in untreated skin cells
- expression levels of IL-8, IL-6, S100A7 and DEFB4, in words ([3]; 10 μM clobetasol, inflammation induced by IL-17 (200 ng/ml) and IL-22 (20 ng/ml)): significantly reduced expression levels
- gene expression of key inflammatory markers (nine marker genes, FIG. 8), in words ([4]; endogenous inflammation): appropriately inhibits gene expression of key inflammatory markers
- S100A7 expression, in words [4, 6]: inhibited S100A7 expression
- rank ordering of inflammation inhibitors based on IL-8 and IL-6 inhibition levels [4, 6]: most effective inhibitor
- reduction in the three markers (IL-6, IL-8, and TNFa), rank ordering of efficacy in words (FIG. 15) [4, 6]: shows the greatest reduction
- gene expression of IL-8, IL-6, S100A7 and DEFB4, in words ([4]; topical, day 3 (72 hours), 1.2 μg/ml 1,10-phenanthroline, endogenous inflammation): inhibited expression of IL-8, IL-6 and S100A7
- fold-regulation in secretion (expression) of IL-6 ([1]; 10 μM clobetasol, donor 1 of 5): −3.28 fold
- fold-regulation in secretion (expression) of IL-8 ([1]; 10 μM clobetasol, donor 1 of 5): −2.72 fold
- fold-regulation in secretion (expression) of IL-6 ([1]; 10 μM clobetasol, donor 2 of 5): −3.55 fold
- fold-regulation in secretion (expression) of IL-8 ([1]; 10 μM clobetasol, donor 2 of 5): −2.72 fold
- fold-regulation in secretion (expression) of IL-6 ([1]; 10 μM clobetasol, donor 3 of 5): −8.69 fold
- fold-regulation in secretion (expression) of IL-8 ([1]; 10 μM clobetasol, donor 3 of 5): −3.68 fold
- fold-regulation in secretion (expression) of IL-6 ([1]; 10 μM clobetasol, donor 4 of 5): −5.70 fold
- fold-regulation in secretion (expression) of IL-8 ([1]; 10 μM clobetasol, donor 4 of 5): −3.89 fold
- fold-regulation in secretion (expression) of IL-6 ([1]; 10 μM clobetasol, donor 5 of 5): −2.20 fold
- fold-regulation in secretion (expression) of IL-8 ([1]; 10 μM clobetasol, donor 5 of 5): −1.76 fold
- IL-8 expression ([1]; 10 μM clobetasol, day 4): 50 pg/mL
- IL-8 secreted into the media ([1]; 10 μM clobetasol, otherwise untreated sample, day 4, untreated about 5,800, 0.01% DMSO about 8,000 pg/ml): about 400 pg/ml
- inhibition of endogenous inflammation, conclusion in words [1]: functions effectively as an inhibitor of both endogenous and induced inflammation
- IL-8 secretion ([1]; topical 10 μM clobetasol): about 300 pg/ml
- IL-8 expression (secretion) ([1]; topical clobetasol 1 μg/cm^2 skin surface, reduction from about 1,200 pg/ml): about 200 pg/ml
- IL-8 expression (secretion) ([2]; 1 pg/cm^2 topical clobetasol): about 1,100 pg/cm^2
- IL-8 secreted into the media ([2]; 10 μM clobetasol with 200 ng/ml IL-17 and 20 ng/ml IL-22, day 4, induced without inhibitor about 13,600 pg/ml): about 4,400 pg/ml
- IL-8 expression ([2]; 10 μM clobetasol): 65 pg/mL
- inhibition of IL-17/IL-22 induced inflammation, conclusion in words [2]: functions effectively as an inhibitor of both endogenous and induced inflammation

Compound: C[C@]12CCC(=O)C=C1CC[C@@H]1[C@@H]2[C@@H](O)C[C@@]2(C)[C@H]1CC[C@]2(O)C(=O)CO [hydrocortisone]
- rank ordering of inflammation inhibitors based on IL-8 and IL-6 inhibition levels [4, 6]: followed by betamethasone, hydrocortisone, ketoprofen and arlatone
- reduction in the three markers (IL-6, IL-8, and TNFa), rank ordering of efficacy in words (FIG. 15) [4, 6]: less robust

Compound: CC(C(=O)O)c1cccc(C(=O)c2ccccc2)c1 (stereo not drawn) [ketoprofen]
- CALML5 expression, in words [4, 6]: slightly inhibiting expression
- FLG expression, in words [4, 6]: slightly inhibited expression
- rank ordering of inflammation inhibitors based on IL-8 and IL-6 inhibition levels [4, 6]: followed by betamethasone, hydrocortisone, ketoprofen and arlatone
- reduction in the three markers (IL-6, IL-8, and TNFa), rank ordering of efficacy in words (FIG. 15) [4, 6]: less robust

Compound: S=[Se]=S [selenium sulfide]
- IL-8 secretion, in words ([1]; selenium sulfide 0.04-25 μM (0.04, 0.2, 1, 5, 25 μM), endogenous inflammation, dose response): decreased secretion levels of IL-8

Compound: IL-17: pro-inflammatory cytokine used as inducer of inflammation
- induction of inflammation in ex vivo skin samples, in words [5]: shown to induce inflammation in ex vivo skin samples

Compound: zinc pyrithione [ZPT]
- inhibition of endogenous inflammation, conclusion in words [1]: did not significantly inhibit endogenous inflammation
- IL-8 expression (secretion) ([1]; topical 0.4 μg/cm^2 zinc pyrithione, without inhibitor about 1,200 pg/ml): about 2,000 pg/ml
- IL-8 expression (secretion) ([2]; 0.4 μg/cm^2 topical ZPT): about 2,300 pg/ml
- inhibition of IL-17/IL-22 induced inflammation, conclusion in words [2]: did inhibit IL-17. IL-22 induced inflammation
